Values quoted from earlier work in US9353109B2, “Flindersia alkaloids, derivatives and analogs: compositions and methods for producing the same” (UNIVERSITY OF HOUSTON SYSTEM, priority 2012, dated 2016).

System: chloroquine-resistant falciparum strains
Conditions: at concentrations that do not affect mammalian cells' viability

Compound	effectiveness toward chloroquine-resistant falciparum strains
CCN(CC)CCCC(C)Nc1ccnc2cc(Cl)ccc12 (stereo not shown) [chloroquine, reference compound]	show effectiveness toward chloroquine-resistant falciparum strains
CNCCc1c(/C=C/[C@@]2(C)C[C@H](C=C(C)C)c3c(CCNC)c4ccccc4n32)[nH]c2ccccc12 [flinderole A]	show effectiveness toward chloroquine-resistant falciparum strains
CC(C)=C[C@H]1C[C@](C)(/C=C/c2[nH]c3ccccc3c2CCN(C)C)n2c1c(CCN(C)C)c1ccccc12 [flinderole B]	show effectiveness toward chloroquine-resistant falciparum strains
dimethylisoborreverine	show effectiveness toward chloroquine-resistant falciparum strains
CNCCc1c(C2C3C(C=C(C)CC3(C)C)c3c(CCNC)c4ccccc4n32)[nH]c2ccccc12 (stereo not shown) [isoborreverine]	show effectiveness toward chloroquine-resistant falciparum strains
C[C@@H]1CC[C@H]2[C@@H](C)C(=O)O[C@@H]3O[C@@]4(C)CC[C@@H]1[C@]32OO4 [artemisinin, reference compound]	show effectiveness toward chloroquine-resistant falciparum strains
CC(C)=C[C@H]1C[C@@](C)(/C=C/c2[nH]c3ccccc3c2CCN(C)C)n2c1c(CCN(C)C)c1ccccc12 [flinderole C]	show effectiveness toward chloroquine-resistant falciparum strains
